Values quoted from earlier work in US8637323B2, “Fluorescent nitric oxide probes and associated methods” (Board of Regents, The University of Texas System, priority 2010, dated 2014).

How the values were obtained:
[1] = calculated with published photophysical parameters

## CC(=O)Oc1ccc2c(c1)Oc1cc(OC(C)=O)ccc1C21OC(=O)c2cc(N)c(N)cc21 [DAF-2 DA]
other
  NO concentration giving a fluorescence signal comparable to 1 mM DHA: ~300 nM
[1]
  fluorescence enhancement: ca. 200 fold
